Measured values published in patent US12479856B2, “Pharmaceutical compounds for the treatment of complement mediated disorders” (Achillion Pharmaceuticals, Inc., priority 2019, dated 2025).
pIC50: −log10 of the molar value.

Target: T1, Human complement C1s enzyme (Homo sapiens, UniProt P09871)
T1 construct: purified from human serum, Complement Technology, Inc; purchased Complement Technology, Inc; host or cells: human serum (plasma-derived natural protein)
T1 sequence (P09871 438-688 limits assumed): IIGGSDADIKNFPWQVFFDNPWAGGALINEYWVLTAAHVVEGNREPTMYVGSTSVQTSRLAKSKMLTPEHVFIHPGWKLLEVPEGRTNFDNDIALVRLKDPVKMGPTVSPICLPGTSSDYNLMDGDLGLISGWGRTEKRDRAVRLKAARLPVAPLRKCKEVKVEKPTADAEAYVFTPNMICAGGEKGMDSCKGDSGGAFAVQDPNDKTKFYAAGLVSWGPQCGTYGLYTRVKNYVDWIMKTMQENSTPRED
T1 sequence (P09871 16-437 partner limits assumed): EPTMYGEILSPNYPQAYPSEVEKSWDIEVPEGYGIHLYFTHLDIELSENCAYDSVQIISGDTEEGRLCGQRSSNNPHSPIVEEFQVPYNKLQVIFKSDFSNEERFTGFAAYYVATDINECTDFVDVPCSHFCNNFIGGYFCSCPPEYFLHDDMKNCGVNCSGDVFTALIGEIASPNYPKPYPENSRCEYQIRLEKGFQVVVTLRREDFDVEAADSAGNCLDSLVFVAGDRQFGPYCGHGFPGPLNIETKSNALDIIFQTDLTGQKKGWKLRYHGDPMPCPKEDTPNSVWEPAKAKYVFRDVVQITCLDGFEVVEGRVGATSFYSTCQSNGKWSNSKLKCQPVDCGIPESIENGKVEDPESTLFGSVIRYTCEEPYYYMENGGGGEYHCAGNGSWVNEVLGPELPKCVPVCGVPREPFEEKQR
Test: Human C1s Enzyme Assay
Assay type: biochemical
Details: Table 1; C1s purified from human serum, 1.16 nM; substrate Z-L-Lys-SBzl; read-out: C1s Protease Activity
Experimental: Example 4. Human C1s Enzyme Assay
Human complement C1s enzyme (purified from human serum, Complement Technology, Inc.) at 1.16 nM final concentration is incubated with test compound at various concentrations for 5 min at room temperature in 50 mM Tris, 1 M NaCl, pH 7.5. A synthetic substrate Z-L-Lys-SBzl and DTNB (Ellman's reagent) are added to final concentrations of 100 μM each. Absorbance at 405 nm (A405) is recorded at 30 second intervals for 30 min using a microplate spectrophotometer. IC50 values are calculated by nonlinear regression of complement C1s reaction rates as a function of test compound concentration.

Compound | pIC50
NCCCCNC(=O)[C@@H]1CC2(CN1C(=O)CNC(=O)c1ccc(Oc3ccccc3)cc1)OCCO2 [Compound 25, (8S)—N-(4-Aminobutyl)-7-{2-[(4-phenoxyphenyl)formamido]acetyl}-1,4-dioxa-7-azaspiro[4.4]nonane-8-carboxamide] | < 6.00
NCCCCCNC(=O)[C@@H]1CC2(CN1C(=O)CNC(=O)c1ccc(Oc3ccccc3)cc1)OCCO2 [Compound 26, (8S)—N-(5-Aminopentyl)-7-{2-[(4-phenoxyphenyl)formamido]acetyl}-1,4-dioxa-7-azaspiro[4.4]nonane-8-carboxamide] | < 6.00
NCCCCCCNC(=O)[C@@H]1CC2(CN1C(=O)CNC(=O)c1ccc(Oc3ccccc3)cc1)OCCO2 [Compound 27, (8S)—N-(6-Aminohexyl)-7-{2-[(4-phenoxyphenyl)formamido]acetyl}-1,4-dioxa-7-azaspiro[4.4]nonane-8-carboxamide] | < 6.00
N=C(N)CCCNC(=O)[C@@H]1CCCN1C(=O)CNC(=O)c1ccc(Oc2ccccc2)cc1 [Compound 28, (S)-N-(4-amino-4-iminobutyl)-1-((4-phenoxybenzoyl)glycyl)pyrrolidine-2-carboxamide] | < 6.00
N=C(N)CCCCNC(=O)[C@@H]1CCCN1C(=O)CNC(=O)c1ccc(Oc2ccccc2)cc1 [Compound 29, (S)-N-(5-amino-5-iminopentyl)-1-((4-phenoxybenzoyl)glycyl)pyrrolidine-2-carboxamide] | < 6.00
C[C@H]1C[C@@H](C(=O)NCc2cc(C(=N)N)cs2)N(C(=O)CNC(=O)c2ccc(Oc3ccccc3)cc2)C1 [Compound 30, (2S,4S)—N-[(4-carbamimidoylthiophen-2-yl)methyl]-4-methyl-1-{2-[(4-phenoxyphenyl)formamido]acetyl}pyrrolidine-2-carboxamide] | > 7.00
N=C(N)c1csc(CNC(=O)[C@@H]2C[C@@H](O)CN2C(=O)CNC(=O)c2ccc(Oc3ccccc3)cc2)c1 [Compound 31, (2S,4R)—N-[(4-carbamimidoylthiophen-2-yl)methyl]-4-hydroxy-1-{2-[(4-phenoxyphenyl)formamido]acetyl}pyrrolidine-2-carboxamide] | > 7.00
CO[C@@H]1C[C@@H](C(=O)NCc2cc(C(=N)N)cs2)N(C(=O)CNC(=O)c2ccc(Oc3ccccc3)cc2)C1 [Compound 32, (2S,4R)—N-[(4-carbamimidoylthiophen-2-yl)methyl]-4-methoxy-1-{2-[(4-phenoxyphenyl)formamido]acetyl}pyrrolidine-2-carboxamide] | > 7.00
CO[C@H]1C[C@@H](C(=O)NCc2cc(C(=N)N)cs2)N(C(=O)CNC(=O)c2ccc(Oc3ccccc3)cc2)C1 [Compound 33, (2S,4S)—N-[(4-carbamimidoylthiophen-2-yl)methyl]-4-methoxy-1-{2-[(4-phenoxyphenyl)formamido]acetyl}pyrrolidine-2-carboxamide] | > 7.00
CO[C@H]1C[C@H](C(=O)CNC(=O)c2ccc(Oc3ccccc3)cc2)[C@H](C(=O)NCc2cc(C(=N)N)cs2)C1 [Compound 34, N-(2-((1S,2R,4S)-2-(((4-carbamimidoylthiophen-2-yl)methyl)carbamoyl)-4-methoxycyclopentyl)-2-oxoethyl)-4-phenoxybenzamide] | < 6.00
CO[C@H]1C[C@@H](C(=O)CNC(=O)c2ccc(Oc3ccccc3)cc2)[C@H](C(=O)NCc2cc(C(=N)N)cs2)C1 [Compound 35, N-(2-((1R,2R,4S)-2-(((4-carbamimidoylthiophen-2-yl)methyl)carbamoyl)-4-methoxycyclopentyl)-2-oxoethyl)-4-phenoxybenzamide] | 6.00 to 7.00
N=C(N)c1csc(CNC(=O)[C@@H]2CCCN2C(=O)NNC(=O)c2ccc(Oc3ccccc3)cc2)c1 [Compound 36, (S)-N-((4-carbamimidoylthiophen-2-yl)methyl)-1-(2-(4-phenoxybenzoyl)hydrazine-1-carbonyl)pyrrolidine-2-carboxamide] | 6.00 to 7.00

Same assay, conditions: Table 2; C1s purified from human serum, 1.16 nM; substrate Z-L-Lys-SBzl; read-out: C1s Protease Activity

Compound | pIC50
N=C(N)c1csc(CNC(=O)[C@@H]2CCCN2CCCCc2ccc(Oc3ccccc3)cc2)c1 [Compound 37, (S)-N-((4-carbamimidoylthiophen-2-yl)methyl)-1-(4-(4-phenoxyphenyl)butyl)pyrrolidine-2-carboxamide] | < 6.00
N=C(N)c1csc(CNC(=O)[C@@H]2CCCN2C(=O)COCc2ccc(Oc3ccccc3)cc2)c1 [Compound 38, (S)-N-((4-carbamimidoylthiophen-2-yl)methyl)-1-(2-((4-phenoxybenzyl)oxy)acetyl)pyrrolidine-2-carboxamide] | 6.00 to 7.00
Cc1cc(C(=O)NCC(=O)N2CCC[C@H]2C(=O)NCc2cc(C(=N)N)cs2)ccc1Oc1ccccc1 [Compound 39, (S)-N-((4-carbamimidoylthiophen-2-yl)methyl)-1-((3-methyl-4-phenoxybenzoyl)glycyl)pyrrolidine-2-carboxamide] | > 7.00
C=C(CCC(=O)N1CCC[C@H]1C(=O)NCc1cc(C(=N)N)cs1)c1ccc(Oc2ccccc2)cc1 [Compound 40, (S)-N-((4-carbamimidoylthiophen-2-yl)methyl)-1-(4-(4-phenoxyphenyl)pent-4-enoyl)pyrrolidine-2-carboxamide] | 6.00 to 7.00
CCCc1cc(C(=O)NCC(=O)N2CCC[C@H]2C(=O)NCc2cc(C(=N)N)cs2)ccc1Oc1ccccc1 [Compound 41, (S)-N-((4-carbamimidoylthiophen-2-yl)methyl)-1-((4-phenoxy-3-propylbenzoyl)glycyl)pyrrolidine-2-carboxamide] | > 7.00
CCCCCc1cc(C(=O)NCC(=O)N2CCC[C@H]2C(=O)NCc2cc(C(=N)N)cs2)ccc1Oc1ccccc1 [Compound 42, (S)-N-((4-carbamimidoylthiophen-2-yl)methyl)-1-((3-pentyl-4-phenoxybenzoyl)glycyl)pyrrolidine-2-carboxamide] | > 7.00
CCCCc1cc(C(=O)NCC(=O)N2CCC[C@H]2C(=O)NCc2cc(C(=N)N)cs2)ccc1Oc1ccccc1 [Compound 43, (S)-1-((3-butyl-4-phenoxybenzoyl)glycyl)-N-((4-carbamimidoylthiophen-2-yl)methyl)pyrrolidine-2-carboxamide] | > 7.00
N=C(N)c1csc(CNC(=O)[C@@H]2CCCN2C(=O)CCC2(c3ccc(Oc4ccccc4)cc3)CC2)c1 [Compound 44, (S)-N-((4-carbamimidoylthiophen-2-yl)methyl)-1-(3-(1-(4-phenoxyphenyl)cyclopropyl)propanoyl)pyrrolidine-2-carboxamide] | < 6.00
Cc1cc(C(=O)NCC(=O)N2CC3(CCCC3)C[C@H]2C(=O)NCc2cc(C(=N)N)cs2)ccc1Oc1ccccc1 [Compound 46, (S)-N-((4-carbamimidoylthiophen-2-yl)methyl)-2-((3-methyl-4-phenoxybenzoyl)glycyl)-2-azaspiro[4.4]nonane-3-carboxamide] | > 7.00
Cc1cc(C(=O)NCC(=O)N2CC3(C[C@H]2C(=O)NCc2cc(C(=N)N)cs2)OCCO3)ccc1Oc1ccccc1 [Compound 47, (S)-N-((4-carbamimidoylthiophen-2-yl)methyl)-7-((3-methyl-4-phenoxybenzoyl)glycyl)-1,4-dioxa-7-azaspiro[4.4]nonane-8-carboxamide] | > 7.00
Cc1cc(C(=O)NCC(=O)N2[C@H]3C[C@@]3(C)C[C@H]2C(=O)NCc2cc(C(=N)N)cs2)ccc1Oc1ccccc1 [Compound 48, (1S,3S,5S)-N-((4-carbamimidoylthiophen-2-yl)methyl)-5-methyl-2-((3-methyl-4-phenoxybenzoyl)glycyl)-2-azabicyclo[3.1.0]hexane-3-carboxamide] | > 7.00
Cc1cc(C(=O)NCC(=O)N2CC3(C[C@H]2C(=O)NCc2nc(C(=N)N)cs2)OCCO3)ccc1Oc1ccccc1 [Compound 49, (S)-N-((4-carbamimidoylthiazol-2-yl)methyl)-7-((3-methyl-4-phenoxybenzoyl)glycyl)-1,4-dioxa-7-azaspiro[4.4]nonane-8-carboxamide] | > 7.00
Cc1cc(C(=O)NCC(=O)N2CC3(C[C@H]2C(=O)NCc2nc(C(=N)N)co2)OCCO3)ccc1Oc1ccccc1 [Compound 51, (S)-N-((4-carbamimidoyloxazol-2-yl)methyl)-7-((3-methyl-4-phenoxybenzoyl)glycyl)-1,4-dioxa-7-azaspiro[4.4]nonane-8-carboxamide] | > 7.00
N=C(N)c1csc(CNC(=O)[C@@H]2CCCN2C(=O)CCC(=O)c2ccc(Oc3ccccc3)cc2)c1 [Compound 52, (S)-N-((4-carbamimidoylthiophen-2-yl)methyl)-1-(4-oxo-4-(4-phenoxyphenyl)butanoyl)pyrrolidine-2-carboxamide] | > 7.00
